Source: patent publication US20220348565A1, “PHARMACEUTICAL COMPOUNDS” (SENTINEL ONCOLOGY LIMITED, priority 2019, published 2022)

Columns and labels:
Assay in all cases: DiscoverX KinomeScreen kinase selectivity competition binding assay
[1] = molecular target: T1, panel of ninety-seven kinases (Homo sapiens, UniProt Q9BUB5); conditions: MKNK1; read-out: % Ctrl @ 3 μM
T1 construct: purchased DiscoverX; host or cells: T7 phage in E. coli (BL21-derived) for most kinases; HEK-293 for the rest
Description: (§1) Atropisomer A-2 has been tested for off-target activity against a panel of ninety-seven kinases distributed across the kinome at a concentration of 3 μM using the DiscoverX KinomeScreen assay. The DiscoverX KinomeScreen assay is a site-directed competition binding assay which measures the binding affinity of a compound to a kinase, by use of a solid supported control compound which can bind or capture the kinases in solution. In the absence of a kinase-inhibitor test compound, all of the kinase will bind to the solid support. If a kinase-inhibitor test compound is added to the assay mix, the amount of kinase binding to the solid support will be reduced, the extent of reduction being dependent on the potency of the test compound as a kinase inhibitor. […] For most assays, kinase-tagged T7 phage strains were grown in parallel in 24-well blocks in an E. coli host derived from the BL21 strain. E. coli were grown to log-phase and infected with T7 phage from a frozen stock (multiplicity of infection=0.4) and incubated with shaking at 32° C. until lysis (90-150 minutes). The lysates were centrifuged (6,000×g) and filtered (0.2 μm) to remove cell debris. The remaining kinases were produced in HEK-293 cells and subsequently tagged with DNA for qPCR detection. Streptavidin-coated magnetic beads were treated with biotinylated small molecule ligands for 30 minutes at room temperature to generate affinity resins for kinase assays. The liganded beads were blocked with excess biotin and washed with blocking buffer (SeaBlock (Pierce), 1% BSA, 0.05% Tween 20, 1 mM DTT) to remove unbound ligand and to reduce non-specific phage binding. […] Test compounds were prepared as 40× stocks in 100% DMSO and directly diluted into the assay. All reactions were performed in polypropylene 384-well plates in a final volume of 0.02 ml. […] The beads were then re-suspended in elution buffer (1×PBS, 0.05% Tween 20, 0.5 μM non-biotinylated affinity ligand) and incubated at room temperature with shaking for 30 minutes. The kinase concentration in the eluates was measured by qPCR. Compounds that bind the kinase active site and directly (sterically) or indirectly (allosterically) prevent kinase binding to the immobilized ligand, will reduce the amount of kinase captured on the solid support. […] The strength of binding of the test molecule to the kinase can be expressed as the percent control (% Ctrl) The compound(s) were screened at 3000 nM concentration, and results for primary screen binding interactions are reported as ‘% Ctrl’, where lower numbers indicate stronger hits in the matrix on the following page(s). [formula] • negative control=DMSO (100% Ctrl) • positive control=control compound (0% Ctrl)

[2] = molecular target: T2, panel of ninety-seven kinases (Homo sapiens, UniProt Q05397); conditions: PTK2; read-out: % Ctrl @ 3 μM
T2 construct: purchased DiscoverX; host or cells: T7 phage in E. coli (BL21-derived) for most kinases; HEK-293 for the rest
Description: as §1

[3] = molecular target: T3, panel of ninety-seven kinases (Homo sapiens, UniProt Q06187); conditions: BTK; read-out: % Ctrl @ 3 μM
T3 construct: purchased DiscoverX; host or cells: T7 phage in E. coli (BL21-derived) for most kinases; HEK-293 for the rest
Description: as §1

[4] = molecular target: T4, panel of ninety-seven kinases (Homo sapiens, UniProt O14920); conditions: IKBKB; read-out: % Ctrl @ 3 μM
T4 construct: purchased DiscoverX; host or cells: T7 phage in E. coli (BL21-derived) for most kinases; HEK-293 for the rest
Description: as §1

[5] = molecular target: T5, panel of ninety-seven kinases (Homo sapiens, UniProt P11309); conditions: PIM1; read-out: % Ctrl @ 3 μM
T5 construct: purchased DiscoverX; host or cells: T7 phage in E. coli (BL21-derived) for most kinases; HEK-293 for the rest
Description: as §1

[6] = molecular target: T6, panel of ninety-seven kinases (Homo sapiens, UniProt P53779); conditions: MAPK10; read-out: % Ctrl @ 3 μM
T6 construct: purchased DiscoverX; host or cells: T7 phage in E. coli (BL21-derived) for most kinases; HEK-293 for the rest
Description: as §1

[7] = molecular target: T7, panel of ninety-seven kinases (Homo sapiens, UniProt P09619); conditions: PDGFRB; read-out: % Ctrl @ 3 μM
T7 construct: purchased DiscoverX; host or cells: T7 phage in E. coli (BL21-derived) for most kinases; HEK-293 for the rest
Description: as §1

[8] = molecular target: T8, panel of ninety-seven kinases (Homo sapiens, UniProt P08581); conditions: MET; read-out: % Ctrl @ 3 μM
T8 construct: purchased DiscoverX; host or cells: T7 phage in E. coli (BL21-derived) for most kinases; HEK-293 for the rest
Description: as §1

[9] = molecular target: T9, panel of ninety-seven kinases (Homo sapiens, UniProt Q02763); conditions: TEK; read-out: % Ctrl @ 3 μM
T9 construct: purchased DiscoverX; host or cells: T7 phage in E. coli (BL21-derived) for most kinases; HEK-293 for the rest
Description: as §1

[10] = molecular target: T10, panel of ninety-seven kinases (Homo sapiens, UniProt P36897); conditions: TGFBR1; read-out: % Ctrl @ 3 μM
T10 construct: purchased DiscoverX; host or cells: T7 phage in E. coli (BL21-derived) for most kinases; HEK-293 for the rest
Description: as §1

[11] = molecular target: T11, panel of ninety-seven kinases (Homo sapiens, UniProt P42336); conditions: PIK3CA; read-out: % Ctrl @ 3 μM
T11 construct: purchased DiscoverX; host or cells: T7 phage in E. coli (BL21-derived) for most kinases; HEK-293 for the rest
Description: as §1

[12] = molecular target: T12, panel of ninety-seven kinases (Homo sapiens, UniProt P45983); conditions: MAPK8; read-out: % Ctrl @ 3 μM
T12 construct: purchased DiscoverX; host or cells: T7 phage in E. coli (BL21-derived) for most kinases; HEK-293 for the rest
Description: as §1

[13] = molecular target: T13, panel of ninety-seven kinases (Homo sapiens, UniProt Q00526); conditions: CDK3; read-out: % Ctrl @ 3 μM
T13 construct: purchased DiscoverX; host or cells: T7 phage in E. coli (BL21-derived) for most kinases; HEK-293 for the rest
Description: as §1

[14] = molecular target: T14, panel of ninety-seven kinases (Homo sapiens, UniProt Q13153); conditions: PAK1; read-out: % Ctrl @ 3 μM
T14 construct: purchased DiscoverX; host or cells: T7 phage in E. coli (BL21-derived) for most kinases; HEK-293 for the rest
Description: as §1

[15] = molecular target: T15, panel of ninety-seven kinases (Homo sapiens, UniProt O15530); conditions: PDPK1; read-out: % Ctrl @ 3 μM
T15 construct: purchased DiscoverX; host or cells: T7 phage in E. coli (BL21-derived) for most kinases; HEK-293 for the rest
Description: as §1

[16] = molecular target: T16, panel of ninety-seven kinases (Homo sapiens, UniProt O15075); conditions: DCLK1; read-out: % Ctrl @ 3 μM
T16 construct: purchased DiscoverX; host or cells: T7 phage in E. coli (BL21-derived) for most kinases; HEK-293 for the rest
Description: as §1

[17] = molecular target: T17, panel of ninety-seven kinases (Homo sapiens, UniProt P49841); conditions: GSK3B; read-out: % Ctrl @ 3 μM
T17 construct: purchased DiscoverX; host or cells: T7 phage in E. coli (BL21-derived) for most kinases; HEK-293 for the rest
Description: as §1

[18] = molecular target: T18, panel of ninety-seven kinases (Homo sapiens, UniProt Q96GD4); conditions: AURKB; read-out: % Ctrl @ 3 μM
T18 construct: purchased DiscoverX; host or cells: T7 phage in E. coli (BL21-derived) for most kinases; HEK-293 for the rest
Description: as §1

[19] = molecular target: T19, panel of ninety-seven kinases (Homo sapiens, UniProt P30530); conditions: AXL; read-out: % Ctrl @ 3 μM
T19 construct: purchased DiscoverX; host or cells: T7 phage in E. coli (BL21-derived) for most kinases; HEK-293 for the rest
Description: as §1

[20] = molecular target: T20, panel of ninety-seven kinases (Homo sapiens, UniProt P48730); conditions: CSNK1D; read-out: % Ctrl @ 3 μM
T20 construct: purchased DiscoverX; host or cells: T7 phage in E. coli (BL21-derived) for most kinases; HEK-293 for the rest
Description: as §1

[21] = molecular target: T21, panel of ninety-seven kinases (Homo sapiens, UniProt P12931); conditions: SRC; read-out: % Ctrl @ 3 μM
T21 construct: purchased DiscoverX; host or cells: T7 phage in E. coli (BL21-derived) for most kinases; HEK-293 for the rest
Description: as §1

`CN(C)CCNC(=O)c1ccc(-c2ccc(-c3ccc(Cl)cc3)n2-c2ccccc2C(F)(F)F)cc1` (single isomer, unassigned) [Atropisomer A-2, 4-[5-(4-chlorophenyl)-1-[2-(trifluoromethyl)phenyl]pyrrol-2-yl]-N-[2-(dimethylamino)ethyl]benzamide] showed a percent of control kinase binding to immobilized ligand at 3 µM [1] of 92%, a percent of control kinase binding to immobilized ligand at 3 µM [2] of 98% and a percent of control kinase binding to immobilized ligand at 3 µM [3] of 94%. The percent of control kinase binding to immobilized ligand at 3 µM [4] was 96%, the percent of control kinase binding to immobilized ligand at 3 µM [5] was 99% and the percent of control kinase binding to immobilized ligand at 3 µM [6] was 93%. For the same compound, the percent of control kinase binding to immobilized ligand at 3 µM [7] was 100%, the percent of control kinase binding to immobilized ligand at 3 µM [8] was 100% and the percent of control kinase binding to immobilized ligand at 3 µM [9] was 99%. The percent of control kinase binding to immobilized ligand at 3 µM [10] was 95%, the percent of control kinase binding to immobilized ligand at 3 µM [11] was 100% and the percent of control kinase binding to immobilized ligand at 3 µM [12] was 77%. For the same compound, the percent of control kinase binding to immobilized ligand at 3 µM [13] was 100%, the percent of control kinase binding to immobilized ligand at 3 µM [14] was 87% and the percent of control kinase binding to immobilized ligand at 3 µM [15] was 96%. For the same compound, the percent of control kinase binding to immobilized ligand at 3 µM [16] was 87%, the percent of control kinase binding to immobilized ligand at 3 µM [17] was 88% and the percent of control kinase binding to immobilized ligand at 3 µM [18] was 84%. The percent of control kinase binding to immobilized ligand at 3 µM [19] was 93%, the percent of control kinase binding to immobilized ligand at 3 µM [20] was 91% and the percent of control kinase binding to immobilized ligand at 3 µM [21] was 100%.
